Data as given in patent US20170014430A1, “Cycloartenol-Containing Composition” (KAO CORPORATION, priority 2014, published 2017).
Marks after values point to notes of the source that are not given here.

Experiments:
[1] = biological target: T1, lipase from porcine pancreas (Sus scrofa, UniProt P00591); test: Inhibitory action against lipase: amount of free fatty acid produced from bile acid micelles (artificial in vivo system); assay type: biochemical
T1 construct: lipase from porcine pancreas [SIGMA]; purchased SIGMA; host or cells: porcine pancreas (tissue-derived preparation)
T1 sequence (P00591 1-450): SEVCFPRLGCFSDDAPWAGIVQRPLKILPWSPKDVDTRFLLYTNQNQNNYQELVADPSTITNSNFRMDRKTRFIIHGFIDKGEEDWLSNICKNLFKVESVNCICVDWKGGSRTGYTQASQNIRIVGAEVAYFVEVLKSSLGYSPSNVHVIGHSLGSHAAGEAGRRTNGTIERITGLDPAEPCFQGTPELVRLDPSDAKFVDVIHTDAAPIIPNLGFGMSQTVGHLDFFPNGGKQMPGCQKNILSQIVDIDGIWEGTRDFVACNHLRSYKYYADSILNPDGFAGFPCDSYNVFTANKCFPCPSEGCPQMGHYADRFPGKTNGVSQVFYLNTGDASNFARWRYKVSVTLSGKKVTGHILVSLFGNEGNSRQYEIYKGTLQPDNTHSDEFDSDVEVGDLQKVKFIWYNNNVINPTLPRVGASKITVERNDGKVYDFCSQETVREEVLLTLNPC
Experimental: In this example, an emulsification liquid containing bile acid micelles was produced as an artificial in vivo system. In the artificial in vivo system, the inhibitory action of the test samples against the lipolytic activity by lipase in vivo was evaluated by measuring the amount of free fatty acid collected from the bile acid micelles after application of lipase in the presence of the test samples.
10 g of olive oil (Wako Pure Chemical Industries, Ltd.) was added to each test sample (30 mg in terms of CA amount), which was heated at 70° C. in an oven for 20 minutes to be dissolved.
0.92 g of olive oil in which each test sample was dissolved, 40 mg of egg yolk lecithin (Wako Pure Chemical Industries, Ltd.), and 24 mL of the bile acid solution were added to a 50-mL tube, followed by cooling with ice, and thereafter emulsification was performed thereon using an ultrasonic homogenizer. […] Thereafter, 2.5 mL of a 0.1% lipase solution (0.1N TRIS-HCl buffer solution of lipase from porcine pancreas [SIGMA]) was added thereto, which was mixed with stirring using a vortex mixer for 10 seconds, followed by incubation in a water bath at 37° C. for 10 minutes. The tube was moved into an oil bath at 70° C., was subjected to enzyme inactivation for 15 minutes, and thereafter was mixed again with stirring using a vortex mixer to collect 100 μL.
The amount of free fatty acid in the reaction solution was determined using NEFA-C Test wako. That is, 800 μL of a coloring reagent A was added to 100 μL of the sample, which was stirred using a vortex mixer, and thereafter was heated at 37° C. for 10 minutes. After cooling, 1600 μL of a coloring reagent B was added thereto, followed by stirring, and was heated again at 37° C. for 10 minutes. This was subjected to an ultraviolet/visible spectrophotometer to measure an absorbance at 550 nm. Thus, the amount of free fatty acid produced was obtained. Each reaction solution was measured 3 times or 4 times by the same operation.

blood GIP = test: Inhibitory action against blood GIP increase, intragastric administration test of starch paste sample; assay type: in vivo, C57BL/6J mice; settings: Table 6, AUC for 120 minutes, relative value with control administration group taken as 100, 175 μM in terms of CA
Experimental: For experiments, C57BL/6J mice (male, 8 week-old, manufactured by CLEA Japan, Inc.) grouped so that each group has the same body weight (N=16/group) were used and were subjected to the tests.
Starch (waxy corn, Amioca) was dissolved in distilled water in an amount 4 times the amount of the starch and gelatinized (pregelatinized) by autoclaving (at 121° C. under a pressure of 2 atmospheres for 20 minutes). Each of the test samples (Sample Nos. 2 to 4 and 8) shown in Table 4 was emulsified in triolein containing egg yolk lecithin and albumin to obtain an emulsified oil. […]
The starch paste sample containing the test sample was intragastrically administered to a mouse fasted for 20 hours, and part of the blood was collected from the orbital venous plexus over time (before the administration, and at 10, 30, 60, and 120 minutes after the administration). […] The collected blood was subjected to centrifugation, and thereafter the blood plasma was prepared and measured using GIP ELISA kit (EMD Millipore Corporation). The blood GIP amount of each sample after the administration was calculated by measuring the maximum value (Cmax) and the area under the concentration curve (AUC) for 120 minutes. […]

[2] = in vivo; Patent Literatures 9 to 11; cited from earlier work

With CC(C)=CCC[C@@H](C)[C@H]1CC[C@@]2(C)[C@@H]3CC[C@H]4C(C)(C)[C@@H](O)CC[C@@]45C[C@@]35CC[C@]12C [Purified product of cycloartenol, cycloartenol] the “amount of free fatty acid produced compared to the control / lipase inhibitory activity (in words)” value ([1]; Example 1) was “reduced”, the “Amount of free fatty acid produced, Average” value ([1]; Example 1, test sample 30 mg in terms of CA in 10 g olive oil, lipase 37° C. 10 minutes, NEFA-C Test wako, absorbance 550 nm, control (olive oil alone) 0.376) was 0.276 and the “amount of free fatty acid produced compared with the control / lipase inhibitory activity (in words)” value ([1]; Example 2) was “reduced”. The “Amount of free fatty acid produced, Average” value ([1]; Example 2, same manner as Example 1, control (olive oil alone) 0.296) was 0.238, the “GIP (AUC)” value (blood GIP) was 81 * and the “inhibitory activity against GIP increase” value [2] was “exerts inhibitory activities”. The “inhibitory activity against postprandial blood glucose increase” value [2] was “exerts inhibitory activities”.
